# Patent publication US11584748B2, “Spirocyclic compounds” (priority 2018, dated 2023)
# Target: hCereblon(M1-L442)_hDDB1(M1-H1140) (Homo sapiens (Human), UniProt Q96SW2)
# Assay: Fluorescence direct binding (tryptophan fluorescence titration)
# Details: 20° C., excitation 280 nm, emission 340 nm, 50 mM Hepes 7.4 200 mM NaCl; read-out: Fluorescence h-Cereblon_DDB1 Mean Kd_EQ
# Experimental: Fluorescence Direct Binding Protocol
# Determination of the affinities of compounds to protein containing one or more tryptophan is measurable by monitoring the fluorescence emission in direct mode. The measurements, depending on the protein available amounts, were performed either manually in a cuvette on ISS-PCI photon counting spectrofluorometer or automatically in well plates on a fluorescence plate reader device. Fluorescence titrations were performed at 20° C. in the chosen binding assay buffer by using a defined constant protein concentration against ligand concentration variations. Small aliquots of known ligand concentration solubilized in DMSO were added and the fluorescence, excited at 280 nm, was recorded at 340 nm.
# Chain of hCereblon(M1-L442)_hDDB1(M1-H1140) (Q96SW2 whole entry, looked up): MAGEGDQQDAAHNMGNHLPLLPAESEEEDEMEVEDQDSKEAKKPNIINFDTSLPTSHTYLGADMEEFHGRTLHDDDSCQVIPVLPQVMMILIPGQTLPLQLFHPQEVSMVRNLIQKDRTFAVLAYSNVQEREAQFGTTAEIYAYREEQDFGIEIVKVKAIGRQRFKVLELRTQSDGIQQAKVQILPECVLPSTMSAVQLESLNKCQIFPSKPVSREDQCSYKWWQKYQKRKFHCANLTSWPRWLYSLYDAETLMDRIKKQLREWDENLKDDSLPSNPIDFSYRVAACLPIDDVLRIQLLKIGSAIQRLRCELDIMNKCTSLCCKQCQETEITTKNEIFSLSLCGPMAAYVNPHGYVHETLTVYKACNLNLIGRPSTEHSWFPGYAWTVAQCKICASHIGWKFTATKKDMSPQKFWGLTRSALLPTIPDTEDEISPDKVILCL
# Chain of hCereblon(M1-L442)_hDDB1(M1-H1140) (Q16531 whole entry partner, looked up): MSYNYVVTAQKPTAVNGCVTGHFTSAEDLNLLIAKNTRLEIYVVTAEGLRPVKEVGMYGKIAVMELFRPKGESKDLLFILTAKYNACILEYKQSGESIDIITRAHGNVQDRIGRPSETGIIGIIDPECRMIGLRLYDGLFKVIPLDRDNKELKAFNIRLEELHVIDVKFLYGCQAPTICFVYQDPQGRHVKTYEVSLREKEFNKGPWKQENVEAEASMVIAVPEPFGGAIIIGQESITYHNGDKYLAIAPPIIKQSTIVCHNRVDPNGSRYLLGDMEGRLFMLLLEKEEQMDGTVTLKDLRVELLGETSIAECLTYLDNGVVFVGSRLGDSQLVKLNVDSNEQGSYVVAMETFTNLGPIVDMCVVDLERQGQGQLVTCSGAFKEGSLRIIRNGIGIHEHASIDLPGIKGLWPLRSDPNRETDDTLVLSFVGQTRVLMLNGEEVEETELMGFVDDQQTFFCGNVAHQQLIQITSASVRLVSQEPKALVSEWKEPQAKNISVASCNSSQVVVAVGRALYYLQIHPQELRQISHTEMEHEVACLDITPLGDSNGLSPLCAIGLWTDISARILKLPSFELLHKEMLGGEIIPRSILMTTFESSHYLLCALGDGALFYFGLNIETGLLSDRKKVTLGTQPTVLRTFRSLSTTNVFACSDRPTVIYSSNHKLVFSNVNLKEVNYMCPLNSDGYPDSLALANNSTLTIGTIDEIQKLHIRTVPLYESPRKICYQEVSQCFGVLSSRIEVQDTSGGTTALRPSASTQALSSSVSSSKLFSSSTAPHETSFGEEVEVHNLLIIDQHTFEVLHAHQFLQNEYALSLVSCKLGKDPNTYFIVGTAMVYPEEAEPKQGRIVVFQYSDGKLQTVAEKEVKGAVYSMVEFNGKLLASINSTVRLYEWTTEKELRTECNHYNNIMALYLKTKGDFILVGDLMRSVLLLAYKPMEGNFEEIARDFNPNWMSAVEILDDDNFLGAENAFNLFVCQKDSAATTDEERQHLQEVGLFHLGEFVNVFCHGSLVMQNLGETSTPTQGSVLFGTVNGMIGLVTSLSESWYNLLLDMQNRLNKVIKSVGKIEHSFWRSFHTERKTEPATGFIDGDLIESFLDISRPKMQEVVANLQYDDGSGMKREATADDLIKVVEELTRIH
row,SMILES,Kd
1,"O=C1NC(=O)C2(CCN(c3ccc([N+](=O)[O-])cn3)CC2)N1 [Example 69, 8-(5-nitropyridin-2-yl)-1,3,8-triazaspiro[4.5] decane-2,4-dione]",7 nM
2,"O=C1CC2(CCN(c3ccc([N+](=O)[O-])cn3)CC2)C(=O)N1 [Example 70, 8-(5-nitropyridin-2-yl)-2,8-diazaspiro[4.5] decane-1,3-dione]",23 nM
3,"O=C1CC2(CCN(c3nc4ccccc4s3)CC2)C(=O)N1 [Example 71, 8-(benzo[d]thiazol-2-yl)-2,8-diazaspiro[4.5] decane-1,3-dione]",2 nM
4,"O=C1NC(=O)C2(CCN(c3ccc([N+](=O)[O-])cc3)CC2)N1 [Example 72, 8-(4-nitrophenyl)-1,3,8-triazaspiro[4.5] decane-2,4-dione]",< 1 nM
5,"COC(=O)c1ccc(N2CCC3(CC2)CC(=O)NC3=O)nc1 [Example 74, methyl 6-(1,3-dioxo-2,8-diazaspiro[4.5]decan-8-yl)nicotinate]",11 nM
6,"O=C1CC2(CCN(C(=O)c3ccccc3)CC2)C(=O)N1 [Example 75, 8-benzoyl-2,8-diazaspiro[4.5] decane-1,3-dione]",< 1 nM
7,"O=C1NC(=O)C2(CCN(C(=O)c3ccc4scnc4c3)CC2)N1 [Example 81, 8-(benzo[d]thiazole-5-carbonyl)-1,3,8-triazaspiro[4.5] decane-2,4-dione]",6 nM
